Assays:
PBMCs = experiment: Cell migration (chemotaxis) assay, PBMC counts; format: cell-based; conditions: 10 μM; MSU crystal conditioned media; FIG. 1B
Method: Primary blood monocytes (PMBC) were obtained from the lymphocyte layer (buffy coat) of peripheral blood from normal donors. Each leukopack (Interstate Blood Bank) was diluted with an equal volume of PBS, and 35 mL of blood preparation was over-laid onto 15 mL of Ficoll-Paque™ PLUS (GE Healthcare Bio-Sciences). Tubes were centrifuged at 700×g without breaks for 30 minutes at room temperature. The buffy coat interface was removed, added to PBS (40 mL), and centrifuged at 300×g. Any remaining erythrocytes in the cell pellet were lysed by incubating cells in red blood cell lysis buffer (10 mL, R&D Systems) for 10 minutes at room temperature. Following lysis, PBS (40 mL) was added and the cells centrifuged for 5 minutes at 200×g. The pellet was washed once with PBS and re-suspended in complete RPMI and seeded onto a BD Falcon™ 100 mm tissue culture dish (Cat. No. 353003). After one hour, the media was aspirated and the adherent cells (predominantly monocytes) were harvested using a cell scraper and used in chemotaxis assays. Chemotaxis was assayed in 48-well plates with BD Falcon FluoroBlok Multiwell inserts with 3 μm pores (Cat. No. 351161 or 351162) coated with hFN. […] Fluorescence emitted from cells that had migrated to the bottom surface of the insert was measured at various time points. Cells labeled with Calcein AM were read at 485/530 nm (Ex/Em) wavelength. […]

neutrophils = experiment: Cell migration (chemotaxis) assay, neutrophil counts; format: cell-based; conditions: 10 μM; MSU-conditioned media; FIG. 1A
CXCR-2 = biological target: T1, CXCR-2 (Homo sapiens, UniProt P25025); conditions: cited from earlier work
T1 sequence (P25025 1-360): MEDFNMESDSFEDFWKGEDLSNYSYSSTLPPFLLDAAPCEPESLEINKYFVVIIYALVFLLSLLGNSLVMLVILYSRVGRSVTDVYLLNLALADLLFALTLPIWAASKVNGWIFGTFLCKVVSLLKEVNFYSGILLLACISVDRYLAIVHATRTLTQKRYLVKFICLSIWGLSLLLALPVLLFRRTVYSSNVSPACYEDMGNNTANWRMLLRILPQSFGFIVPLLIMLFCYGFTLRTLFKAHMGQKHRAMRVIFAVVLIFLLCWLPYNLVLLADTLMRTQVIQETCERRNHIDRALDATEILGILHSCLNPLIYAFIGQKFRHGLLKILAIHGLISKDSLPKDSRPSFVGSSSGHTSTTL

O=C(Nc1ccc(Cl)c(S(=O)(=O)N2CCNCC2)c1O)Nc1cccc(F)c1Cl [Compound 1, 1-(4-chloro-2-hydroxy-3-(piperazin-1-ylsulfonyl)phenyl)-3-(2-chloro-3-fluorophenyl)urea]
inhibition in migration in PBMCs (PBMCs): significant inhibition in migration
inhibition of migration in neutrophils (neutrophils): significant inhibition of migration
inhibit CXCR-2 (CXCR-2): shown to inhibit CXCR-2

Source: patent US10772886B2, “CXCR-2 inhibitors for treating crystal arthropathy disorders” (ARDEA BIOSCIENCES, INC., priority 2016, dated 2020)
